Results on 22 compounds are retold here after patent publication US20220089609A1, “SUBSTITUTED QUINAZOLINONE DERIVATIVES AND THEIR USE AS POSITIVE ALLOSTERIC MODULATORS OF MGLUR4” (DOMAIN THERAPEUTICS, priority 2018, published 2022).

One data set concerns the target T1, human mGluR4 (hmGluR4) (Homo sapiens, UniProt Q14833).
T1 construct: expressed in transfected cells; host or cells: HEK-293 cells, transient co-transfection by electroporation
The data set can be described thus: Calcium assay EC50 determination, positive allosteric modulator activity on hmGluR4 transiently over-expressed in HEK-293 cells. In kind it is cell-based. The following applies: PAM mode with EC20 glutamate; hmGluR4 in HEK-293 cells; intracellular calcium (Fluo4AM); read-out: mGluR4 positive allosteric modulator activity, half maximal effective concentration (EC50). The gist of the method:
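HEK-293 cells transiently co-transfected with hmGluR4, chimeric G protein and glutamate transporters; Fluo4AM calcium read (ex 485/em 525 nm) on FLIPR Tetra. Compound alone 10 min for agonism, then EC20 glutamate with 3 min recording for PAM activity, versus buffer or EC20 glutamate basal.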
(Calcium flux is commonly read through the fluorescence of an indicator in the cells.)

Molecules are shown by their SMILES. A value given as a limit tells only on which side of the number the result lay.

T1 sequence (Q14833 33-912): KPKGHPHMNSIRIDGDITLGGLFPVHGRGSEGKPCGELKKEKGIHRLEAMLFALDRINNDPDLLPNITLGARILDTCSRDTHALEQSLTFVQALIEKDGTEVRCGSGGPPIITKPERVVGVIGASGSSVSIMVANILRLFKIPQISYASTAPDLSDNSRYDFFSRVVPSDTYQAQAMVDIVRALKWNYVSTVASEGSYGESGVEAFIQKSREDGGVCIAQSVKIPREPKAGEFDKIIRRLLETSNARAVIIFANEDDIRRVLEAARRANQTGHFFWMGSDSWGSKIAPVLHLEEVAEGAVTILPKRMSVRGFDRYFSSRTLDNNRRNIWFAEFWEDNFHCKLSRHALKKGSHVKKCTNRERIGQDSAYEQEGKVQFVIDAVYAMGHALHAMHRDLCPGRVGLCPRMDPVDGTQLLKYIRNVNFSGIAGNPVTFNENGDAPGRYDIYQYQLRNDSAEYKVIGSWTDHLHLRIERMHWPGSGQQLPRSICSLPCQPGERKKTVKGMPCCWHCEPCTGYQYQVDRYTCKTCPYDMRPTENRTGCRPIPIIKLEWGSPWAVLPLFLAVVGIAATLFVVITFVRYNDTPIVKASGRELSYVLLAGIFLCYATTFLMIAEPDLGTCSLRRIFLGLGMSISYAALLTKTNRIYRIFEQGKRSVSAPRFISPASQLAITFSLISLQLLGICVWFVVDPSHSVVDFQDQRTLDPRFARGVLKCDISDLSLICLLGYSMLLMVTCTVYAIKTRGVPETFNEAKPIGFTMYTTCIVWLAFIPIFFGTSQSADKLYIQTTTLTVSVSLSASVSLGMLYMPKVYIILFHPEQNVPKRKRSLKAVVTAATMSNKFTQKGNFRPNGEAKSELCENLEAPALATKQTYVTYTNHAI

For orientation: melting point means the temperature, or range, at which the solid turns liquid. `Cl.O=c1[nH]c(-c2cc3sccc3cn2)nc2ccc(OCCCc3cccnc3)cc12` [Compound 37, 6-(3-Pyridin-3-yl-propoxy)-2-thieno[3,2-c]pyridin-6-yl-3H-quinazolin-4-one hydrochloride] came in with a melting point of 149 to 154 °C. Also, the EC50 at human mGluR4 (hmGluR4) is 100 to 1000 nM.
As to `CC(=O)N1CCC(COc2ccc3nc(-c4cc5ccsc5cn4)[nH]c(=O)c3c2)CC1` [Compound 47, 6-(1-Acetyl-piperidin-4-ylmethoxy)-2-thieno[2,3-c]pyridin-5-yl-3H-quinazolin-4-one], the melting point is more than 250 °C. Further, the EC50 at human mGluR4 (hmGluR4) was in the range of 100 to 1000 nM.
On the same counts, the results for `CCC(=O)N1CCC(COc2ccc3nc(-c4cc5ccsc5cn4)[nH]c(=O)c3c2)CC1` [Compound 48, 6-(1-Propionyl-piperidin-4-ylmethoxy)-2-thieno[2,3-c]pyridin-5-yl-3H-quinazolin-4-one] are 234 to 239 °C and 100 to 1000 nM.
On the same counts, the results for `CS(=O)(=O)c1ccc(CCCOc2ccc3nc(-c4cc5ccsc5cn4)[nH]c(=O)c3c2)cc1` [Compound 60, 6-[3-(4-Methanesulfonyl-phenyl)-propoxy]-2-thieno[2,3-c]pyridin-5-yl-3H-quinazolin-4-one] are 236 to 237 °C and 100 to 1000 nM.
`Cl.O=c1[nH]c(-c2cc3ccsc3cn2)nc2ccc(OCCCc3cnccn3)cc12` [Compound 61, 6-(3-Pyrazin-2-yl-propoxy)-2-thieno[2,3-c]pyridin-5-yl-3H-quinazolin-4-one hydrochloride]: the melting point lay within 230 to 240 °C. The EC50 at human mGluR4 (hmGluR4) was in the range of 100 to 1000 nM.
Consider `COc1cnccc1CCCOc1ccc2nc(-c3cc4ccsc4cn3)[nH]c(=O)c2c1.Cl` [Compound 62, 6-[3-(3-Methoxy-pyridin-4-yl)-propoxy]-2-thieno[2,3-c]pyridin-5-yl-3H-quinazolin-4-one hydrochloride], for which the melting point was 250 to 251 °C. In addition, the EC50 on human mGluR4 (hmGluR4) fell in the range of 100 to 1000 nM.
The like results for `O=c1[nH]c(-c2cc3ccsc3cn2)nc2ccc(OCCCc3cocn3)cc12` [Compound 64, 6-(3-Oxazol-4-yl-propoxy)-2-thieno[2,3-c]pyridin-5-yl-3H-quinazolin-4-one] were, in that order, 197 to 199 °C and 100 to 1000 nM.
`Cl.O=c1[nH]c(-c2cc(C(F)(F)F)ccn2)nc2ccc(OCCCc3ccncc3)nc12` [Compound 67, 6-(3-Pyridin-4-yl-propoxy)-2-(4-trifluoromethyl-pyridin-2-yl)-3H-pyrido[3,2-d]pyrimidin-4-one hydrochloride] returned a melting point of more than 250 °C. Also, the EC50 at human mGluR4 (hmGluR4) lay within 100 to 1000 nM.
In the case of `Cc1cc(O[C@@H](C)C2CCOCC2)cc2c(=O)[nH]c(-c3cc4ccsc4cn3)nc12` [Compound 110-S, S-8-Methyl-6-[1-(tetrahydro-pyran-4-yl)-ethoxy]-2-thieno[2,3-c]pyridin-5-yl-3H-quinazolin-4-one], the melting point was 150 to 180 °C. Moreover, at human mGluR4 (hmGluR4), the EC50 was not above 100 nM.
The like results for `Cc1cc(O[C@@H](C)C2CCOCC2)cc2c(=O)[nH]c(-c3cc(C(F)(F)F)ccn3)nc12` [Compound 111-S, S-8-Methyl-6-[1-(tetrahydro-pyran-4-yl)-ethoxy]-2-(4-trifluoromethyl-pyridin-2-yl)-3H-quinazolin-4-one] were, in that order, 120 to 132 °C and 100 to 1000 nM.
The like results for `Cc1cc(OCC2(F)CCOC2)cc2c(=O)[nH]c(-c3cc(C(F)(F)F)ccn3)nc12` (centres unmarked) [Compound 112, 6-[(3-fluorotetrahydrofuran-3-yl)methoxy]-8-methyl-2-[4-(trifluoromethyl)-2-pyridyl]-3H-quinazolin-4-one] were, in that order, 188 to 195 °C and not above 100 nM.
In turn, `CCC(=O)N1CC(Oc2cc(C)c3nc(-c4cc5ccsc5cn4)[nH]c(=O)c3c2)C1` [Compound 116, 8-methyl-6-(1-propanoylazetidin-3-yl)oxy-2-thieno[2,3-c]pyridin-5-yl-3H-quinazolin-4-one] came in with a melting point of 230 to 240 °C. The EC50 at human mGluR4 (hmGluR4) was 100 to 1000 nM.
On the same counts, the results for `Cc1cc(OC2CCC(=O)N(C)C2)cc2c(=O)[nH]c(-c3cc4cccn4cn3)nc12` (centres unmarked) [Compound 118, 8-Methyl-6-[(1-methyl-6-oxo-3-piperidyl)oxy]-2-pyrrolo[1,2-c]pyrimidin-3-yl-3H-quinazolin-4-one] are 220 to 230 °C and not above 100 nM.
The like results for `Cc1cc(N2CCC3(CCOCC3)CC2)cc2c(=O)[nH]c(-c3cc4sccc4cn3)nc12` [Compound 120, 8-Methyl-6-(3-oxa-9-azaspiro[5.5]undecan-9-yl)-2-(thieno[3,2-c]pyridin-6-yl)quinazolin-4(3H)-one] were, in that order, more than 250 °C and not above 100 nM.
The like results for `Cc1cc(CCN2CCCOCC2)cc2c(=O)[nH]c(-c3cnc4ccsc4c3)nc12.Cl` [Compound 122, 8-Methyl-6-(2-[1,4]oxazepan-4-yl-ethyl)-2-thieno[3,2-b]pyridin-6-yl-3H-quinazolin-4-one hydrochloride] were, in that order, more than 250 °C and not above 100 nM.
On to `Cc1cc(CCN2CCOCC2)cc2c(=O)[nH]c(-c3cc4sccc4cn3)nc12.Cl` [Compound 123, 8-Methyl-6-(2-morpholin-4-yl-ethyl)-2-thieno[3,2-c]pyridin-6-yl-3H-quinazolin-4-one hydrochloride], for which the melting point was more than 250 °C. At human mGluR4 (hmGluR4), the EC50 is not above 100 nM.
On the same counts, the results for `Cc1cc(CN2CCOCC2)cc2c(=O)[nH]c(-c3cc4cccn4cn3)nc12.Cl` [Compound 125, 8-Methyl-6-(morpholinomethyl)-2-pyrrolo[1,2-c]pyrimidin-3-yl-3H-quinazolin-4-one hydrochloride] are more than 250 °C and not above 100 nM.
On the same counts, the results for `Cc1cc(CC(=O)N2CCOCC2)cc2c(=O)[nH]c(-c3cc4ccsc4cn3)nc12` [Compound 127, 8-Methyl-6-(2-morpholino-2-oxo-ethyl)-2-thieno[2,3-c]pyridin-5-yl-3H-quinazolin-4-one] are more than 250 °C and 100 to 1000 nM.
Take `Cc1cc(CCN2CCCCC2)cc2c(=O)[nH]c(-c3cnc4sccc4c3)nc12.Cl` [Compound 128, 8-Methyl-6-(2-piperidin-1-yl-ethyl)-2-thieno[2,3-b]pyridin-5-yl-3H-quinazolin-4-one hydrochloride]: the melting point is more than 250 °C. Also, on human mGluR4 (hmGluR4), the EC50 fell in the range of 1000 to 10000 nM.
The compound `Cc1cc(OC2CCC(=O)N(C)C2)cc2c(=O)[nH]c(-c3cc4sccc4cn3)nc12` (centres unmarked) [Compound 129, 8-Methyl-6-(1-methyl-6-oxo-piperidin-3-yloxy)-2-thieno[3,2-c]pyridin-6-yl-3H-quinazolin-4-one] yielded a melting point of 90 to 110 °C. Besides, the EC50 on human mGluR4 (hmGluR4) was not above 100 nM.
The like results for `Cc1cc(OCC2CCN(C)C(=O)C2)cc2c(=O)[nH]c(-c3cc4ccsc4cn3)nc12` (centres unmarked) [Compound 130, 8-Methyl-6-(1-methyl-2-oxo-piperidin-4-ylmethoxy)-2-thieno[2,3-c]pyridin-5-yl-3H-quinazolin-4-one] were, in that order, more than 250 °C and not above 100 nM.
For the compound `Cc1cc(CN2CCCCC2)cc2c(=O)[nH]c(-c3cc4ccsc4cn3)nc12.Cl` [Compound 131, 8-Methyl-6-(1-piperidylmethyl)-2-thieno[2,3-c]pyridin-5-yl-3H-quinazolin-4-one hydrochloride], the melting point fell in the range of 233 to 240 °C. Also, the EC50 on human mGluR4 (hmGluR4) is 100 to 1000 nM.
